Results on seven molecules are retold here after patent US20210246157A1, “CAMPTOTHECIN DERIVATIVES AND PREPARATION METHODS AND APPLICATIONS THEREOF” (priority 2018, published 2021).

SMILES strings stand for the structures. pIC50: −log10 of the molar value. ≈ marks a conversion by molar mass, not a printed value. Like-named read-outs stand apart in the source and are kept apart here.

In one data set the test system is BGC-823. The data set can be described thus: Cytotoxicity test (MTT, 72 h). Conditions: Homo sapiens, BGC-823, 72 h, read-out: 50% Inhibiting Concentration value (IC50).
The next data set relates to Hela. The experiment in a line: Cytotoxicity test (MTT, 72 h). Conditions: Homo sapiens, read-out: 50% Inhibiting Concentration value (IC50).
The next data set concerns PANC-1. The experiment in a line: Cytotoxicity test (MTT, 72 h). Conditions: Homo sapiens, PANC-1, 72 h, read-out: 50% Inhibiting Concentration value (IC50).
For a further data set, the system named is HT-29. The experiment in a line: Cytotoxicity test (MTT, 72 h). Conditions: Homo sapiens, HT-29, 72 h, read-out: 50% Inhibiting Concentration value (IC50).
Another data set concerns SW-480. The data set can be described thus: Cytotoxicity test (MTT, 72 h). To be noted: Homo sapiens, SW480, 72 h, read-out: 50% Inhibiting Concentration value (IC50).
The subject of another data set is H1975. The experiment in a line: Cytotoxicity test (MTT, 72 h). To be noted: Homo sapiens, NCI-H1975, 72 h, read-out: 50% Inhibiting Concentration value (IC50).
In another data set the test system is K562. The experiment in a line: Cytotoxicity test (MTT, 72 h). Conditions: Homo sapiens, K562, 72 h, read-out: 50% Inhibiting Concentration value (IC50).
The subject of a further data set is 143B. The data set can be described thus: Cytotoxicity test (MTT, 72 h). Conditions: Homo sapiens, read-out: 50% Inhibiting Concentration value (IC50).
The subject of the next data set is A549. The data set can be described thus: Cytotoxicity test (MTT, 72 h). To be noted: Homo sapiens, A549, 72 h, read-out: 50% Inhibiting Concentration value (IC50).
In another data set the test system is MDA-MB-231. The experiment in a line: Cytotoxicity test (MTT, 72 h). Conditions: Homo sapiens, MDA-MB-231, 72 h, read-out: 50% Inhibiting Concentration value (IC50).
In another data set the test system is SKOV-3. The data set can be described thus: Cytotoxicity test (MTT, 72 h). To be noted: Homo sapiens, SK-OV-3, 72 h, read-out: 50% Inhibiting Concentration value (IC50).
The test system of a further data set is PC3. The experiment in a line: Cytotoxicity test (MTT, 72 h). To be noted: Homo sapiens, PC-3, 72 h, read-out: 50% Inhibiting Concentration value (IC50).
A further data set relates to TPC-1. The experiment in a line: Cytotoxicity test (MTT, 72 h). Conditions: Homo sapiens, TPC1, 72 h, read-out: 50% Inhibiting Concentration value (IC50).
Another data set relates to HepG2. The data set can be described thus: Cytotoxicity test (MTT, 72 h). Conditions: Homo sapiens, HepG2, 72 h, read-out: 50% Inhibiting Concentration value (IC50).
A further data set relates to HCT-116. The data set can be described thus: Cytotoxicity test (MTT, 72 h). To be noted: Homo sapiens, HCT-116, 72 h, read-out: 50% Inhibiting Concentration value (IC50).
The subject of another data set is ECA-109. The data set can be described thus: Cytotoxicity test (MTT, 72 h). Conditions: Homo sapiens, ECa-109, 72 h, read-out: 50% Inhibiting Concentration value (IC50).
Data set [1] in a line: Solubility test, equilibrium method, UV-visible spectrophotometry. It counts as physicochemical. Conditions: thermodynamic from solid. The procedure: The solubility test is carried out by equilibrium method. […] An appropriate amount of the compound is weighed and dissolved in 1 mL of methanol solution to prepare a control solution with a certain concentration (C0). The concentration of test solution is calculated according to the following formula: Cx=(Ax/A0)C0, wherein Cx is concentration of test solution, Ax is absorbance of test solution, C0 is concentration of control solution, and A0 is absorbance of control solution.

Setting [2] is: aqueous buffer, PBS pH 7.4, read-out: Solubility in PBS (pH = 7.4).
[3] abbreviates: aqueous with cosolvent or surfactant or cyclodextrin, 0.1% aqueous solution of Tween-80, read-out: Solubility in 0.1% Tween-80.
Setting [4] is: saline or isotonic, normal saline, read-out: Solubility in Normal Saline (NS).
Setting [5] is: water, read-out: Solubility in Water.

Protocol for 143B: (§1) In order to investigate the antitumor activities of the compounds, a variety of tumor cell lines for test are selected. Cells at logarithmic growth period are inoculated in a 96-well plate overnight, then drugs with a certain gradient concentrations are added, and incubation is carried out in a cell culture chamber (5% CO2, 37° C.) for 72 h.
Protocol for A549: as §1
Protocol for BGC-823: as §1
Protocol for ECA-109: as §1
Protocol for H1975: as §1
Protocol for HCT-116: as §1
Protocol for HT-29: (§2) Cells at logarithmic growth period are inoculated in a 96-well plate overnight, then drugs with a certain gradient concentrations are added, and incubation is carried out in a cell culture chamber (5% CO2, 37° C.) for 72 h.
Protocol for Hela: as §1
Protocol for HepG2: as §1
Protocol for K562: as §1
Protocol for MDA-MB-231: as §1
Protocol for PANC-1: as §2
Protocol for PC3: as §1
Protocol for SKOV-3: as §2
Protocol for SW-480: as §2
Protocol for TPC-1: as §2

The solubility is the concentration that dissolves in the medium under given conditions. With `CCc1c2c(nc3ccc(OC(=O)NCCOCc4cn([C@H]5O[C@@H](CO)[C@H](O)[C@@H](O)[C@@H]5O)nn4)cc13)-c1cc3c(c(=O)n1C2)COC(=O)[C@]3(O)CC` [Compound 66], the pIC50 in the data set with BGC-823 is 6.74; in the data set on Hela, 5.17; with PANC-1, 5.17; in the data set on HT-29, 5.29; in the data set with SW-480 it was 6.67; in the data set on H1975, 5.07. Besides, the pIC50 in the data set on K562 is 6.15; in the data set with 143B, 5.15; in the data set on A549, 5.25; in the data set with MDA-MB-231, 5.87; in the data set with SKOV-3 it was 5.71; in the data set with PC3, 5.33. The pIC50 in the data set with TPC-1 was 4.99; with HepG2, 5.79; with HCT-116, 6.07; in the data set with ECA-109, 5.37. In addition, the solubility in data set [1] (setting [2]) was 2880 µg/mL (≈ 3980 µM); in [1] (setting [3]) it was 1140 µg/mL (≈ 1580 µM); in data set [1] (setting [4]) it was 1590 µg/mL (≈ 2210 µM); in data set [1] (setting [5]) it was 979 µg/mL (≈ 1350 µM).

As for `CCc1c2c(nc3ccc(OC(=O)NCCOCCOCc4cn([C@H]5O[C@@H](CO)[C@H](O)[C@@H](O)[C@@H]5O)nn4)cc13)-c1cc3c(c(=O)n1C2)COC(=O)[C@]3(O)CC` [Compound 73], the pIC50 in the data set with BGC-823 was 6.14; with Hela it was 5.16; in the data set on PANC-1, 5.16; with HT-29 it was 5.50; with SW-480 it was 6.06; with H1975, 5.15. For the same molecule, the pIC50 in the data set on K562 is 6.13; in the data set with 143B, 5.23; in the data set with A549, 5.23; in the data set with MDA-MB-231, 5.69; in the data set with SKOV-3, 5.54; in the data set with PC3 it was 5.31. Moreover, the pIC50 in the data set with TPC-1 was 5.07; in the data set with HepG2, 5.62; in the data set with HCT-116, 6.06; in the data set with ECA-109, 5.58. Moreover, the solubility in [1] (setting [2]) amounted to 414 µg/mL (≈ 540 µM); in [1] (setting [3]) it was 1260 µg/mL (≈ 1650 µM); in data set [1] (setting [4]), 1440 µg/mL (≈ 1880 µM); in [1] (setting [5]), 3580 µg/mL (≈ 4670 µM).

In the case of `CCc1c2c(nc3ccc(OC(=O)NCCOCCOCc4cn(CCO[C@H]5O[C@@H](CO)[C@H](O)[C@@H](O)[C@@H]5O)nn4)cc13)-c1cc3c(c(=O)n1C2)COC(=O)C3(O)CC` (some centres unmarked) [Compound 74], the pIC50 in the data set on BGC-823 is 5.76; with Hela, 4.95; in the data set on PANC-1 it was 4.95; with HT-29, 5.10; in the data set with SW-480 it was 5.69; with H1975 it was 5.17. The pIC50 in the data set with K562 was 5.68; in the data set with 143B it was 5.25; with A549, 5.03; in the data set on MDA-MB-231, 5.28; in the data set with SKOV-3 it was 5.12; in the data set on PC3 it was 5.11. Further, the pIC50 is 5.09 in the data set on TPC-1, 5.20 in the data set on HepG2, 5.60 in the data set on HCT-116 and 5.18 with ECA-109. Further, the solubility in [1] (setting [2]) came to 565 µg/mL (≈ 696 µM); in data set [1] (setting [3]), 2750 µg/mL (≈ 3390 µM); in [1] (setting [4]) it was 3950 µg/mL (≈ 4880 µM); in data set [1] (setting [5]), 792 µg/mL (≈ 977 µM).

Regarding `CCc1c2c(nc3ccc(OC(=O)NCCCOCc4cn([C@H]5O[C@@H](CO)[C@H](O)[C@@H](O)[C@@H]5O)nn4)cc13)-c1cc3c(c(=O)n1C2)COC(=O)[C@]3(O)CC` [Compound 80], the pIC50 is 5.93 with BGC-823; 5.13 in the data set on Hela; 5.13 in the data set on PANC-1; 5.16 in the data set with HT-29; 5.85 with SW-480; 4.97 in the data set with H1975. In addition, the pIC50 is 5.37 in the data set on K562; 5.05 in the data set on 143B; 5.21 in the data set on A549; 5.11 with MDA-MB-231; 4.95 in the data set with SKOV-3; 5.29 with PC3. The pIC50 in the data set on TPC-1 is 4.89; in the data set on HepG2, 5.03; in the data set with HCT-116, 5.29; with ECA-109, 5.24. The solubility was 792 µg/mL (≈ 1080 µM) in data set [1] (setting [2]), 961 µg/mL (≈ 1300 µM) in data set [1] (setting [3]), 642 µg/mL (≈ 871 µM) in data set [1] (setting [4]) and 82.5 µg/mL (≈ 112 µM) in data set [1] (setting [5]).

As for `CCc1c2c(nc3ccc(OC(=O)NCCCOCc4cn(CCO[C@H]5O[C@@H](CO)[C@H](O)[C@@H](O)[C@@H]5O)nn4)cc13)-c1cc3c(c(=O)n1C2)COC(=O)[C@]3(O)CC` [Compound 81], the pIC50 in the data set with BGC-823 is 6.15; in the data set on Hela, 5.00; in the data set with PANC-1 it was 5.00; with HT-29 it was 5.03; in the data set with SW-480, 6.07; with H1975, 5.01. Also, the pIC50 in the data set on K562 was 5.22; with 143B it was 5.09; in the data set with A549, 5.08; in the data set with MDA-MB-231, 5.28; in the data set with SKOV-3, 5.12; with PC3 it was 5.16. Also, the pIC50 was 4.94 in the data set with TPC-1, 5.20 in the data set on HepG2, 5.14 with HCT-116 and 5.11 in the data set on ECA-109. In addition, the solubility in data set [1] (setting [2]) was determined as 895 µg/mL (≈ 1150 µM); in data set [1] (setting [3]), 1210 µg/mL (≈ 1550 µM); in [1] (setting [4]), 985 µg/mL (≈ 1260 µM); in data set [1] (setting [5]) it was 985 µg/mL (≈ 1260 µM).

In the case of `CCc1c2c(nc3ccc(OC(=O)NCCCCCOCc4cn([C@H]5O[C@@H](CO)[C@H](O)[C@@H](O)[C@@H]5O)nn4)cc13)-c1cc3c(c(=O)n1C2)COC(=O)[C@]3(O)CC` [Compound 87], the pIC50 in the data set with BGC-823 is 6.02; with Hela it was 5.12; with PANC-1, 5.12; with HT-29 it was 5.13; in the data set on SW-480, 5.94; in the data set with H1975, 5.29. Further, the pIC50 in the data set with K562 was 5.90; in the data set on 143B it was 5.37; in the data set on A549 it was 5.20; with MDA-MB-231, 5.21; in the data set with SKOV-3 it was 5.05; in the data set on PC3, 5.28. For the same molecule, the pIC50 in the data set with TPC-1 is 5.21; in the data set on HepG2, 5.13; with HCT-116 it was 5.82; with ECA-109, 5.21. Also, the solubility in data set [1] (setting [2]) was 910 µg/mL (≈ 1190 µM); in [1] (setting [3]), 1110 µg/mL (≈ 1450 µM); in data set [1] (setting [4]), 894 µg/mL (≈ 1170 µM); in [1] (setting [5]), 1050 µg/mL (≈ 1370 µM).

Turning to `CCc1c2c(nc3ccc(OC(=O)NCCCCCOCc4cn(CCO[C@H]5O[C@@H](CO)[C@H](O)[C@@H](O)[C@@H]5O)nn4)cc13)-c1cc3c(c(=O)n1C2)COC(=O)[C@]3(O)CC` [Compound 88], the pIC50 with BGC-823 is 6.14; in the data set with Hela it was 4.96; in the data set with PANC-1, 4.96; in the data set on HT-29, 5.04; with SW-480 it was 6.06; with H1975 it was 5.16. Further, the pIC50 in the data set with K562 was 5.64; in the data set with 143B it was 5.24; in the data set with A549, 5.04; in the data set with MDA-MB-231, 5.29; in the data set with SKOV-3, 5.13; in the data set on PC3, 5.12. In addition, the pIC50 with TPC-1 was 5.08; with HepG2, 5.21; in the data set with HCT-116 it was 5.56; in the data set with ECA-109, 5.12. Moreover, the solubility is 895 µg/mL (≈ 1110 µM) in data set [1] (setting [2]), 1350 µg/mL (≈ 1670 µM) in data set [1] (setting [3]), 870 µg/mL (≈ 1080 µM) in [1] (setting [4]) and 1130 µg/mL (≈ 1390 µM) in [1] (setting [5]).
